Source: ChEMBL document CHEMBL5441456, “ASAP - SARS-CoV-2 nsp3 macrodomain dose response” (2024)
Values joined by “and” are separate entries in the source; they are usually repeats but may differ in a detail not shown here. Identical values can stand only once.

Target: Replicase polyprotein 1ab (Severe acute respiratory syndrome coronavirus 2, UniProt P0DTD1)
Assay: Functional biochemical assay to identify treatments for viral infectious disease that targets SARS-COV-2 nsp3 macrodomain, whereby the mechanism of action displaces an ADP-Ribose modified peptide from the binding site. Utilizing a time-resolved fluorescence method to measure binding by reading the emitted fluorescence intensity in two wavelengths.

| SMILES | IC50 |
| --- | --- |
| CC(C)[C@@H](Nc1ncnc2[nH]c(-c3cnn(CC(N)=O)c3)cc12)c1ccc2c(c1)OCCO2 | 0.383 µM and 0.361 µM and 0.247 µM and 0.258 µM |
| COC(=O)c1c[nH]c(-c2cc(N[C@@H](c3ccc4c(c3)OCCO4)C(C)C)ncn2)c1 | > 99.5 µM |
| CC(C)[C@@H](Nc1ncnc2[nH]ccc12)c1ccc2c(c1)OCC(=O)N2 | 27.2 µM and 24.2 µM |
| CC(C)(C)[C@@H](Nc1ncnc2[nH]ccc12)c1ccc2c(c1)OCCO2 | 1.23 µM and 1.06 µM |
| O=C(O)[C@@H](CC1CCCCC1)Nc1ncnc2[nH]ccc12 | 74.6 µM and 71.4 µM |
| CNc1ccc([C@@H](CC(=O)O)NC(=O)c2ncnc3[nH]ccc23)cc1 | 28.9 µM and 34.6 µM |
| Cc1ccc2c(NC(=O)c3ccc(NC(=O)NC4CC4)cc3)c(C(=O)O)sc2n1 | > 99.5 µM |
| Cn1c(C(=O)O)c(NC(=O)c2ccc(NC(=O)NC3CC3)cc2)c2cccnc21 | > 99.5 µM |
| COc1ccc([C@@H]2CCN(c3ncnc4[nH]ccc34)C2)cc1 | > 99.5 µM |
| c1nc(Nc2ccc3c(c2)OCO3)c2cc[nH]c2n1 | > 99.5 µM |
| CNC(=O)c1ccc([C@@H](CC(=O)O)NC(=O)c2ncnc3[nH]ccc23)cc1 | 9.07 µM and 13.4 µM |
| CC(C)[C@@H](Nc1ncnc2[nH]c3cc(F)ccc3c12)c1ccc2c(c1)OCCO2 | 8.54 µM and 10 µM |
| CC(C)[C@@H](Nc1cc(-c2c[nH]cn2)ncn1)c1ccc2c(c1)OCCO2 | > 99.5 µM |
| Cc1[nH]nc2ncc(C(=O)N[C@@H](c3ccc4c(c3)OCCO4)C(C)C)cc12 | > 99.5 µM |
| COCc1noc(C)c1-c1cc2c(N[C@@H](c3ccc4c(c3)OCCO4)C(C)C)ncnc2[nH]1 | > 99.5 µM |
| CC(C)[C@@H](Nc1ncnc2[nH]c(-c3cnoc3)cc12)c1ccc2c(c1)OCCO2 | 29.9 µM and > 99.5 µM |
| CC(C)[C@@H](Nc1ncnc2c1cnn2C)c1ccc2c(c1)OCCO2 | > 99.5 µM |
| C[C@@H](Nc1ncnc2[nH]ccc12)[C@@H]1CCOC1 | > 99.5 µM |
| CC(C)[C@@H]1C[C@H](Nc2[nH]cnc3nccc2-3)CCO1 | > 99.5 µM |
| CC(C)[C@@H]1C[C@@H](Nc2ncnc3[nH]ccc23)CCO1 | > 99.5 µM |
| COc1cccc([C@@H](CC(=O)O)NC(=O)c2ncnc3[nH]ccc23)c1 | 16.3 µM and 21.7 µM |
| O=C(O)[C@@H]1C[C@@H]2OCC[C@@H]2N1c1ncnc2[nH]ccc12 | > 99.5 µM |
| O=C(O)C[C@@H](NC(=O)c1ncnc2[nH]ccc12)c1ccc(NCC2=NO[C@@H]3COC[C@H]23)cc1 | 7.29 µM and 8.33 µM |
| COc1ccc(CN(c2ncnc3[nH]ccc23)C(C)C)cc1OC | > 99.5 µM |
| CS(=O)(=O)Nc1cccc([C@@H](CC(=O)O)NC(=O)c2ncnc3[nH]ccc23)c1 | 50.4 µM and 38.6 µM and 39.5 µM |
| CC(=O)Nc1ccc([C@@H](CC(=O)O)NC(=O)c2ncnc3[nH]ccc23)cc1 | 14.5 µM and 14.6 µM |

| SMILES | IC50 |
| --- | --- |
| CC(C)[C@@H](Nc1ccc(NC(=O)NC2CC2)cc1)c1ccc2c(c1)OCCO2 | > 99.5 µM |
| Cc1[nH]c2ncnc(NC(=O)c3ccncc3)c2c1C | > 99.5 µM |
| O=C(Nc1ccc(C(=O)Nc2c(C(=O)O)sc3ccncc23)cc1)NC1CC1 | > 99.5 µM |
| c1nc(N[C@@H](c2ccc3c(c2)OCCO3)C2CCC2)c2cc[nH]c2n1 | 5.2 µM and 6.52 µM |
| CC(C)[C@@H](Nc1ncnc2[nH]ccc12)c1cnn(C)c1 | 3.93 µM and 3.17 µM |
| Cc1nnc(Nc2ccc(C(=O)N[C@@H]3c4cccc(O)c4C[C@H]3C(=O)O)cc2)o1 | 25.3 µM and 26 µM |
| N=C(N)C[C@@H](NC(=O)c1ncnc2[nH]ccc12)c1ccc(Br)cc1 | > 99.5 µM |
| CNC(=N)C[C@@H](NC(=O)c1ncnc2[nH]ccc12)c1ccc(Br)cc1 | > 99.5 µM |
| O=C(Nc1cccc2c(C(=O)N[C@H]3c4ccccc4C[C@H]3C(=O)O)c[nH]c12)NC1CC1 | 7.83 µM and 6.58 µM |
| CC(C)[C@@H](Nc1ncnc2[nH]ccc12)c1cccc(C(F)(F)F)c1 | 83.2 µM and 77.6 µM |
| C[C@@H](Nc1ncnc2[nH]ccc12)[C@@H]1CCCCO1 | > 99.5 µM |
| Cc1ncc(C(=O)Nc2ncnc3[nH]c(C)c(C)c23)cn1 | > 99.5 µM |
| Cc1nc2nc[nH]c(NC(=O)c3ccc(NC(=O)NC4CC4)nc3)c-2c1C | > 99.5 µM |
| O=C(O)C[C@@H](NC(=O)c1ncnc2[nH]ccc12)c1ccc(Nc2nnc(C3CC3)o2)cc1 | 3.78 µM and 4.55 µM |
| O=C(O)[C@@H]1[C@@H](c2ccccc2)CCN1c1ncnc2[nH]ccc12 | > 99.5 µM |
| COc1ccc(Nc2ncnc3[nH]ccc23)cc1OC | > 99.5 µM |
| Cc1nn(CC(C)C)c(Cl)c1[C@@H]1CCCN1c1ncnc2[nH]ccc12 | > 99.5 µM |
| O=C(Nc1ccc(C(=O)Nc2c(C(=O)O)oc3cc(Br)ccc23)cc1)NC1CC1 | > 99.5 µM |
| CC(C)Cc1ccc2c(NC(=O)c3ccc(NC(=O)NC4CC4)cc3)c(C(=O)O)sc2n1 | > 99.5 µM |
| COc1ccc([C@@H](Nc2ncnc3[nH]ccc23)C(C)C)cc1OC | > 99.5 µM |
| FC(F)[C@@H](Nc1ncnc2[nH]ccc12)c1ccc2c(c1)OCCO2 | 16 µM and 22.8 µM |
| O[C@@H]1CCCC[C@@H]1Nc1ncnc2[nH]ccc12 | > 99.5 µM and 95.3 µM |
| O=C(Nc1cccc2c(C(=O)Nc3cc4c(cc3C(=O)O)OCCO4)c[nH]c12)NC1CC1 | > 99.5 µM |
| CNC(=O)c1cccc([C@@H](CC(=O)O)NC(=O)c2ncnc3[nH]ccc23)c1 | 18.7 µM and 17.4 µM |
| CC(C)[C@@H](Nc1ncnc2[nH]ccc12)c1ccc2c(c1)C(=O)NCC2 | 2.25 µM and 2.44 µM |
| O=C(O)C[C@@H](NC(=O)c1ncnc2[nH]c3cc(F)ccc3c12)c1ccc(Br)cc1 | 0.992 µM and 1.01 µM |

| SMILES | IC50 |
| --- | --- |
| CC(C)[C@@H](Nc1ncc2c(n1)CCCC2)c1ccc2c(c1)OCCO2 | > 99.5 µM |
| CS(=O)(=O)Nc1ccc([C@@H](CC(=O)O)NC(=O)c2ncnc3[nH]ccc23)cc1 | 12.1 µM and 10 µM |
| CC(C)[C@@H](Nc1cc(-c2cc[nH]n2)ncn1)c1ccc2c(c1)OCCO2 | > 99.5 µM |
| CC(C)[C@@H](Nc1cnc(C(=O)O)cn1)c1ccc2c(c1)OCCO2 | > 99.5 µM |
| c1nc(N[C@@H](c2ccc3c(c2)OCCO3)C2CC2)c2cn[nH]c2n1 | 17.7 µM and 19.9 µM |
| O=C(O)C[C@@H](NC(=O)c1ccc(NC(=O)NC2CC2)cc1)c1cccnc1 | 77.1 µM and 68.2 µM |
| c1nc(N2CCC[C@@H]2c2ccc3c(c2)OCCO3)c2cc[nH]c2n1 | > 99.5 µM |
| O=C(N[C@@H](Cc1nn[nH]n1)c1ccc(Br)cc1)c1ncnc2[nH]ccc12 | 1.92 µM and 2.11 µM |
| CNc1cccc([C@@H](CC(=O)O)NC(=O)c2ncnc3[nH]ccc23)c1 | 66.3 µM and 25.7 µM |
| CC(C)[C@@H](NC(=O)c1cnn(-c2ccccc2)n1)c1ccc2c(c1)OCCO2 | > 99.5 µM |
| O=C(O)C[C@@H](NC(=O)c1ccc(NC(=O)NC2CC2)cc1)c1cccc(C(F)F)c1 | 76.4 µM and 72.3 µM |
| c1nc(NCc2ccc3c(c2)OCCO3)c2cc[nH]c2n1 | 80.3 µM and 93.9 µM |
| CC(C)[C@@H](Nc1ncnc2[nH]c(-c3cc[nH]n3)cc12)c1ccc2c(c1)OCCO2 | 1.81 µM and 1.88 µM |
| O=C(O)C[C@H](NC(=O)c1ccc(NC(=O)NC2CC2)cc1)c1cccnc1 | 50.1 µM and 58.4 µM |
| Cc1[nH]c2ncnc(NC(=O)c3ccc(-n4cccc4)nc3)c2c1C | > 99.5 µM |
| COc1ccc([C@@H](Nc2ncnc3[nH]ccc23)C(C)C)cc1 | 6.36 µM and 8.21 µM |
| COc1ccc([C@@H](CC(=O)O)NC(=O)c2cc3cccc(NC(=O)NC4CC4)c3[nH]2)cc1 | > 99.5 µM |
| O=C(Nc1cccc2c(C(=O)Nc3cc4c(cc3CO)OCCO4)c[nH]c12)NC1CC1 | > 99.5 µM |
| CC(=O)Nc1cccc([C@@H](CC(=O)O)NC(=O)c2ncnc3[nH]ccc23)c1 | 25.8 µM and > 12.4 µM and 20.7 µM |
| O=C(O)C[C@@H](NC(=O)c1ccc(NC(=O)NC2CC2)cc1)c1cccc(O)c1 | 9.04 µM and 8.76 µM |
| c1nc(N[C@@H](C2CC2)[C@@H]2CCCOC2)c2cc[nH]c2n1 | > 99.5 µM |
| C[C@@H]1Oc2ccc(Nc3ncnc4[nH]ccc34)cc2NC1=O | > 99.5 µM |
| O=C(O)C[C@@H](NC(=O)c1ccc(NC(=O)NC2CC2)cc1)C1CCOCC1 | > 99.5 µM |
| O=C(O)C[C@@H](NC(=O)c1c[nH]c2ncncc12)c1ccc(NCC2=NO[C@@H]3COC[C@H]23)cc1 | > 99.5 µM |
| Cc1nnc(Nc2ccc([C@@H](CC(=O)O)NC(=O)c3ncnc4[nH]ccc34)cc2)o1 | 12.2 µM and 10.1 µM |
| O=C(O)[C@@H](Nc1ncnc2[nH]ccc12)c1ccc2c(c1)OCCO2 | 9.41 µM and 7.95 µM |

| SMILES | IC50 |
| --- | --- |
| CO[C@@H]1C[C@@H](C(=O)O)N(c2ncnc3[nH]ccc23)C1 | > 99.5 µM |
| CC(C)[C@@H](Nc1ncnc2[nH]ccc12)c1ccncc1 | > 12.4 µM and 34 µM |
| CC(C)[C@@H](Nc1ncnc2[nH]ccc12)c1ccc2c(c1)N(C)CCO2 | 27.8 µM and 31.7 µM |
| Cn1ncc2c(N[C@@H](c3ccc4c(c3)OCCO4)C3CC3)ncnc21 | > 99.5 µM |
| COc1ccc([C@@H](CC(=O)O)NC(=O)c2ccc(NC(=O)NC3CC3)cc2)cc1 | 57.5 µM and 37.8 µM |
| COc1cccc([C@@H](Nc2ncnc3[nH]ccc23)C(C)C)c1 | 25.7 µM and 39.9 µM |
| O[C@H]1CCCC[C@@H]1Nc1ncnc2[nH]ccc12 | 55.4 µM and 64.7 µM |
| CC(C)[C@@H](Nc1ncnc2[nH]ccc12)C(=O)O | 15.4 µM and 16.8 µM and 20.9 µM and 20.6 µM |
| O=C(Nc1ccc2c(C(=O)N[C@@H]3c4ccccc4C[C@@H]3C(=O)O)cnn2c1)NC1CC1 | 63.8 µM and 49.3 µM |
| C[C@@H](Nc1ncnc2[nH]ccc12)[C@@H]1CCS(=O)(=O)C1 | > 99.5 µM |
| c1ccc2c(c1)OCC[C@@H]2Nc1ncnc2[nH]ccc12 | > 99.5 µM |
| O=C(Nc1cccc2c(C(=O)Nc3ccccc3C(=O)O)c[nH]c12)NC1CC1 | 19.9 µM and 20 µM |
| O=C(O)C[C@@H](NC(=O)c1ccc(NC(=O)NC2CC2)cc1)c1cccc(F)c1 | 27.3 µM and 32.5 µM |
| CC(C)[C@@H](NC(=O)c1ccccn1)c1ccc2c(c1)OCCO2 | > 99.5 µM |
| CC(C)[C@@H](NC(=O)c1ccnc(-n2ccnc2)c1)c1ccc2c(c1)OCCO2 | > 99.5 µM |
| NC(=O)[C@@H](NC(=O)c1ncnc2[nH]ccc12)c1ccc(Br)cc1 | > 99.5 µM |
| COc1ccc([C@H](CC(=O)O)NC(=O)c2ccc(NC(=O)NC3CC3)cc2)cc1 | 54.1 µM and 51.2 µM and 38.1 µM |
| c1nc(N[C@@H](c2ccc3c(c2)OCCO3)[C@@H]2CCN2)c2cc[nH]c2n1 | > 99.5 µM |
| O=C(O)C[C@@H](NC(=O)c1ncnc2[nH]ccc12)c1ccc(Nc2nnco2)cc1 | 6.57 µM and 5.48 µM |
| CC(C)[C@@H](Nc1ncnc2[nH]ccc12)c1ccc(C(F)(F)F)cc1 | 46.2 µM and 37.2 µM |
| c1nc(N[C@@H](c2ccc3c(c2)OCCO3)C2CCCC2)c2cc[nH]c2n1 | 2.23 µM and 2.25 µM |
| c1ccc2c(N[C@@H](c3ccc4c(c3)OCCO4)C3CC3)ncnc2c1 | > 99.5 µM |
| N#CC[C@@H](NC(=O)c1ncnc2[nH]ccc12)c1ccc(Br)cc1 | > 99.5 µM |
| O=C(O)[C@@H](Nc1ncnc2[nH]ccc12)C1CC(F)(F)C1 | > 99.5 µM |
| O=C(O)C[C@@H](NC(=O)c1ncnc2[nH]ccc12)c1ccc(NCc2ccno2)cc1 | 11.3 µM and 13.1 µM |
